“And” between values parts separate entries of the source, which are not always exact repeats. Identical values can stand only once. Inconclusive results and toxic doses are left out. No stated cut-off is given here; in the data, active means T/C of 150% or more; inactive means T/C below 125%.
Test system: L1210 leukemia ip in BDF1 mice, survival T/C
Test: NCI In Vivo Anticancer Drug Screen. Data for tumor model L1210 Leukemia (intraperitoneal) in B6D2F1 (BDF1) mice
Settings: endpoint: mean survival time, higher = longer survival
How it was run: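 Transplantable tumor model; survival measured in treated vs vehicle control mice. Value = treated/control.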

[1] = dose: 100.0 mg/kg/injection, schedule: Q04DX003 (ip), vehicle: saline with Tween-80
[2] = dose: 200.0 mg/kg/injection, schedule: Q04DX003 (ip), vehicle: saline with Tween-80
[3] = dose: 400.0 mg/kg/injection, schedule: Q04DX003 (ip), vehicle: saline with Tween-80
[4] = dose: 100.0 mg/kg/injection, schedule: Q01DX001 (ip), vehicle: saline with Tween-80
[5] = dose: 100.0 mg/kg/injection, schedule: Q01DX001 (ip), vehicle: saline
[6] = dose: 200.0 mg/kg/injection, schedule: Q01DX001 (ip), vehicle: saline
[7] = dose: 400.0 mg/kg/injection, schedule: Q01DX001 (ip), vehicle: saline
[8] = dose: 100.0 mg/kg/injection, schedule: Q04DX003 (ip), vehicle: Klucel (hydroxypropylcellulose) (HPC)
[9] = dose: 200.0 mg/kg/injection, schedule: Q04DX003 (ip), vehicle: Klucel (hydroxypropylcellulose) (HPC)
[10] = dose: 400.0 mg/kg/injection, schedule: Q04DX003 (ip), vehicle: Klucel (hydroxypropylcellulose) (HPC)
[11] = dose: 100.0 mg/kg/injection, schedule: Q04DX002 (ip), vehicle: Klucel (hydroxypropylcellulose) (HPC)
[12] = dose: 200.0 mg/kg/injection, schedule: Q04DX002 (ip), vehicle: Klucel (hydroxypropylcellulose) (HPC)
[13] = dose: 400.0 mg/kg/injection, schedule: Q04DX002 (ip), vehicle: Klucel (hydroxypropylcellulose) (HPC)
[14] = dose: 100.0 mg/kg/injection, schedule: Q01DX001 (ip), vehicle: carboxymethylcellulose (CMC)
[15] = dose: 200.0 mg/kg/injection, schedule: Q01DX001 (ip), vehicle: carboxymethylcellulose (CMC)
[16] = dose: 400.0 mg/kg/injection, schedule: Q01DX001 (ip), vehicle: carboxymethylcellulose (CMC)
[17] = dose: 100.0 mg/kg/injection, schedule: Q01DX009 (ip), vehicle: Klucel (hydroxypropylcellulose) (HPC)
[18] = dose: 200.0 mg/kg/injection, schedule: Q01DX009 (ip), vehicle: Klucel (hydroxypropylcellulose) (HPC)
[19] = dose: 400.0 mg/kg/injection, schedule: Q01DX009 (ip), vehicle: Klucel (hydroxypropylcellulose) (HPC)
[20] = dose: 100.0 mg/kg/injection, schedule: Q04DX003 (ip), vehicle: saline
[21] = dose: 200.0 mg/kg/injection, schedule: Q04DX003 (ip), vehicle: saline
[22] = dose: 400.0 mg/kg/injection, schedule: Q04DX003 (ip), vehicle: saline
[23] = dose: 50.0 mg/kg/injection, schedule: Q01DX009 (ip), vehicle: saline with Tween-80

Measured: T/C

CCC(C)C(CN)(CCCN1CCCC1)c1cccc2ccccc12 (stereo not drawn)
inactive: [1] 92 % of control | [2] 89 % of control | [3] 101 % of control

COc1cc(C=O)cc(C=O)c1O
inactive: dose: 25.0 mg/kg/injection, schedule: Q01DX001 (ip), vehicle: saline with Tween-80 96 % of control | dose: 50.0 mg/kg/injection, schedule: Q01DX001 (ip), vehicle: saline with Tween-80 104 % of control | [4] 90 % of control

Nc1ccc(S(=O)(=O)Nc2ccc(C(=O)O)cc2)cc1
inactive: [1] 98 % of control | [2] 98 % of control | [3] 98 % of control

Cc1ccc(C2OCC(CCl)O2)cc1 (stereo not drawn)
inactive: dose: 222.0 mg/kg/injection, schedule: Q01DX Z (ip), vehicle: methylcellulose (MC) 108 % of control | dose: 333.0 mg/kg/injection, schedule: Q01DX Z (ip), vehicle: methylcellulose (MC) 96 % of control | dose: 500.0 mg/kg/injection, schedule: Q01DX Z (ip), vehicle: methylcellulose (MC) 102 % of control

CCOC(=O)C1(CCCBr)CCCCC1=O (stereo not drawn)
inactive: [4] 107 % of control | dose: 200.0 mg/kg/injection, schedule: Q01DX001 (ip), vehicle: saline with Tween-80 102 % of control | dose: 400.0 mg/kg/injection, schedule: Q01DX001 (ip), vehicle: saline with Tween-80 104 % of control

OC(COc1ccc(Cl)cc1)CN1CCN(c2ccc(Cl)cc2)CC1 (stereo not drawn)
inactive: [5] 97 % of control | [6] 95 % of control | [7] 95 % of control

Oc1ccccc1C1SCSCS1
inactive: [8] 97 % of control | [9] 98 % of control | [10] 103 % of control

NC(=S)Nc1ccncc1
inactive: [11] 92 % of control | [12] 106 % of control | [13] 95 % of control

CCSc1cccc(C(=O)O)c1
inactive: [14] 102 % of control | [15] 94 % of control | [16] 100 % of control

CC(C)(C)c1ccc(OC(=O)Nc2cc(C(F)(F)F)ccc2Cl)c(Br)c1
inactive: [17] 90 % of control | [18] 97 % of control | [19] 97 % of control

CCOC(=O)C(CC#N)C(=O)OCC
inactive: dose: 75.0 mg/kg/injection, schedule: Q01DX001 (ip), vehicle: carboxymethylcellulose (CMC) 104 % of control | dose: 150.0 mg/kg/injection, schedule: Q01DX001 (ip), vehicle: carboxymethylcellulose (CMC) 98 % of control | dose: 300.0 mg/kg/injection, schedule: Q01DX001 (ip), vehicle: carboxymethylcellulose (CMC) 96 % of control

CCCCCCCCCCCCCCCCC[CH2][Sn]([Cl])([CH2]CCCCCCCCCCCCCCCCC)[CH2]CCCCCCCCCCCCCCCCC
inactive: [11] 92 % of control | [12] 100 % of control | [13] 96 % of control

BrC1(Br)CC1(c1ccccc1)c1ccccc1
inactive: [17] 93 % of control | [8] 107 % of control | [20] 107 % of control | [18] 97 % of control | [9] 107 % of control | [21] 107 % of control | [19] 101 % of control | [10] 97 % of control | [22] 97 % of control

Nc1ccc(S(=O)(=O)NS(=O)(=O)c2ccccc2)cc1
inactive: [5] 95 % of control | [6] 93 % of control | [7] 101 % of control

O=C1CCCN1
inactive: [20] 92 % of control | [21] 97 % of control | [22] 92 % of control

COC(=O)c1n[nH]c(C(C)C)c1N=NN(C)C
inactive: [23] 116 % of control | [1] 116 % of control | dose: 132.0 mg/kg/injection, schedule: Q04DX003 (ip), vehicle: saline with Tween-80 111 % of control | [2] 119 % of control | dose: 300.0 mg/kg/injection, schedule: Q04DX003 (ip), vehicle: saline with Tween-80 111 % of control | [3] 96 % of control

Cln1nnc2ccccc21
inactive: dose: 100.0 mg/kg/injection, schedule: Q04DX002 (ip), vehicle: other 91 % of control | dose: 200.0 mg/kg/injection, schedule: Q04DX002 (ip), vehicle: other 106 % of control

CC1CCCC(C)N1NC1=NCCO1 (stereo not drawn)
inactive: dose: 25.0 mg/kg/injection, schedule: Q01DX009 (ip), vehicle: saline with Tween-80 96 % of control | [23] 98 % of control | dose: 100.0 mg/kg/injection, schedule: Q01DX009 (ip), vehicle: saline with Tween-80 97 % of control | [1] 100 % of control

CC1=NN(c2ccccc2)C(=O)C1N=Nc1ccc(S(=O)(=O)Nc2ccccn2)cc1 (stereo not drawn)
inactive: [14] 97 % of control | [15] 94 % of control | [16] 97 % of control

CC(=O)Nc1ccc[n+](C)c1
inactive: [20] 108 % of control | [21] 105 % of control | [22] 100 % of control

O=S(=O)(NC(CCl)=NC1CCCCC1)c1ccccc1
inactive: [11] 89 % of control | [12] 100 % of control | [13] 104 % of control

CCCCCNc1ccnc(=O)[nH]1
inactive: dose: 50.0 mg/kg/injection, schedule: Q01DX001 (ip), vehicle: Klucel (hydroxypropylcellulose) (HPC) 99 % of control | dose: 100.0 mg/kg/injection, schedule: Q01DX001 (ip), vehicle: Klucel (hydroxypropylcellulose) (HPC) 94 % of control | dose: 200.0 mg/kg/injection, schedule: Q01DX001 (ip), vehicle: Klucel (hydroxypropylcellulose) (HPC) 96 % of control

O=C(Nc1c(Cl)cc2c(c1Cl)Cc1cc([N+](=O)[O-])ccc1-2)C(Cl)Cl
inactive: [14] 98 % of control | [15] 102 % of control | [16] 98 % of control

[Cl][Pt+2][Cl].[NH-]C(CCCN)C(=O)O.[NH-]C(CCCN)C(=O)O (stereo not drawn)
inactive: dose: 50.0 mg/kg/injection, schedule: Q04DX003 (ip), vehicle: saline with Tween-80 103 % of control | [1] 104 % of control and 115 % of control | [2] 97 % of control and 102 % of control

Cn1ncc2[nH]c(=O)n(OS(=O)(=O)c3ccccc3)c(=O)c21
inactive: dose: 50.0 mg/kg/injection, schedule: Q01DX001 (ip), vehicle: saline 100 % of control | [5] 96 % of control | [6] 96 % of control | [7] 87 % of control

O=C1c2cccc3cccc(c23)C(=O)N1Cc1ccccc1
inactive: [5] 95 % of control | [6] 103 % of control | [7] 91 % of control

Cc1ccc(-c2c([N+](=O)[O-])ccc(Cl)c2[N+](=O)[O-])cc1
inactive: dose: 50.0 mg/kg/injection, schedule: Q01DX001 (ip), vehicle: carboxymethylcellulose (CMC) 102 % of control | [14] 105 % of control | [15] 102 % of control | [16] 100 % of control

O=[N+]([O-])c1ccc2c3c(ccc(Br)c13)CC2
inactive: dose: 100.0 mg/kg/injection, schedule: Q01DX009 (ip), vehicle: saline sonified 103 % of control | [8] 106 % of control | dose: 200.0 mg/kg/injection, schedule: Q01DX009 (ip), vehicle: saline sonified 103 % of control | [9] 98 % of control | dose: 400.0 mg/kg/injection, schedule: Q01DX009 (ip), vehicle: saline sonified 100 % of control | [10] 92 % of control

— PubChem BioAssay AID248 (DTP/NCI, 2004)
